Experimental data published in patent US20230201173A1, “SMAD4 Complex Inducers and Uses in Cancer Therapy” (Emory University, priority 2021, published 2023).
Changes are numbered by the printed parent chain.

B1: His-SMAD4WT, Q13485 1-552 (protein, not shown: small tags and cut ends)
chain: MDNMSITNTPTSNDACLSIVHSLMCHRQGGESETFAKRAIESLVKKLKEKKDELDSLITAITTNGAHPSKCVTIQRTLDGRLQVAGRKGFPHVIYARLWRWPDLHKNELKHVKYCQYAFDLKCDSVCVNPYHYERVVSPGIDLSGLTLQSNAPSSMMVKDEYVHDFEGQPSLSTEGHSIQTIQHPPSNRASTETYSTPALLAPSESNATSTANFPNIPVASTSQPASILGGSHSEGLLQIASGPQPGQQQNGFTGQPATYHHNSTTTWTGSRTAPYTPNLPHHQNGHLQHHPPMPPHPGHYWPVHNELAFQPPISNHPAPEYWCSIAYFEMDVQVGETFKVPSSCPIVTVDGYVDPSGGDRFCLGQLSNVHRTEAIERARLHIGKGVQLECKGEGDVWVRCLSDHAVFVQSYYLDREAGRAPGDAVHKIYPSAYIKVFDLRQCHRQMQQQAATAQAAAAAQAAAVAGNIPGPGSVGGIAPAISLSAAAGIGVDDLRRLCILRMSFVKGWGPDYPRQSIKETPCWIEIHLHRALQLLDEVLHTMPIADPQPLD
B2: His-SMAD4R361H, Q13485 1-552 (protein, not shown: small tags and cut ends)
chain: B1 chain with R361H

Legend:
[1] = target: T1, His-SMAD4R361H/Flag-SMAD3 PPI (Homo sapiens, UniProt Q13485, R361H); test: TR-FRET assay of the SMAD4R361H/SMAD3 protein-protein interaction in cell lysate; type: binding; conditions: dose-response, read-out: EC50, increase of the TR-FRET signal of SMAD4R361H-SMAD3 PPI
T1 construct: expressed in transfected cells; host or cells: HEK293T
T1 sequence (Q13485 whole entry R361H): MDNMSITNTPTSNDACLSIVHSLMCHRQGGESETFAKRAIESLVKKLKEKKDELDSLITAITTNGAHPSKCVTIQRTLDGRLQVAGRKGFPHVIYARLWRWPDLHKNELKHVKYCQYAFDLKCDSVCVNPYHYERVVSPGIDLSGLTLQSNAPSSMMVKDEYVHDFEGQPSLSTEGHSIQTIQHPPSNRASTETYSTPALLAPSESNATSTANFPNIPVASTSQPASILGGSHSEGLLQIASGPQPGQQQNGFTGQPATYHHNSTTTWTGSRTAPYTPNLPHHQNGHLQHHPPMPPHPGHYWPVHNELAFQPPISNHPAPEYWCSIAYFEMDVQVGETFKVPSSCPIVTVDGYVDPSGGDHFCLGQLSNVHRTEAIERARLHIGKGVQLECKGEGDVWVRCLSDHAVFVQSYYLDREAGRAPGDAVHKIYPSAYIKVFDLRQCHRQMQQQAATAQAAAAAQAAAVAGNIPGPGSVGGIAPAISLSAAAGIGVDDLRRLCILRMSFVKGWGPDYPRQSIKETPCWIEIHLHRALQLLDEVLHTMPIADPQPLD
T1 sequence (P84022 whole entry partner): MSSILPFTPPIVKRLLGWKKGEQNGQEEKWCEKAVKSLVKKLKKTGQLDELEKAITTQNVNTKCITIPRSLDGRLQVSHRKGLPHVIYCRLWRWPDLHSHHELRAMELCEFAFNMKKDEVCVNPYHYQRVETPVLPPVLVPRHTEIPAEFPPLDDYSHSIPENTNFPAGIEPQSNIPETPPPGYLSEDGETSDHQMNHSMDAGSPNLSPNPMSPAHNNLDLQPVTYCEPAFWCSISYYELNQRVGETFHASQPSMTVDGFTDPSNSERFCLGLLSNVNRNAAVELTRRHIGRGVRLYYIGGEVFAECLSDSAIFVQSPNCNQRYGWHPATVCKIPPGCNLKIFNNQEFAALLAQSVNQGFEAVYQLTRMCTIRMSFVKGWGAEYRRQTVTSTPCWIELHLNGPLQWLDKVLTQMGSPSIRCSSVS

SMAD4R361H-SMAD3 complex = target: T2, SMAD4R361H-SMAD3 complex (Homo sapiens, UniProt Q13485, R361H); test: GST beads pull-down assay of SMAD4R361H-SMAD3 complex formation; type: binding; conditions: cell lysate treated with compound, read-out: EC50, amount of SMAD3 in the SMAD4R361H complex
T2 construct: expressed in transfected cells
T2 sequence (Q13485 whole entry R361H): as the sequence (Q13485 whole entry R361H) above
T2 sequence (P84022 whole entry partner): as the sequence (P84022 whole entry partner) above

SMAD4D351H-SMAD3 PPI = target: T3, SMAD4D351H-SMAD3 PPI (Homo sapiens, UniProt Q13485, D351H); test: GST pull-down assay of SMAD4D351H-SMAD3 complex formation; type: binding; conditions: DMSO as control
T3 construct: expressed in transfected cells
T3 sequence (Q13485 whole entry D351H): as the sequence (Q13485 whole entry R361H) above, with D351H, H361R counted along it
T3 sequence (P84022 whole entry partner): as the sequence (P84022 whole entry partner) above
Text: To evaluate the mutation selectivity of Ro-31-8220 and Go-6983, their potentiation effect on other SMAD4 loss-of-function mutations, such as D351H, was examined. The PPI between SMAD3 and SMAD4D351H was studied in the presence of these compounds with DMSO as a control.

[2] = tested on: SMAD4R361H with R-SMADs (SMAD3, SMAD2, SMAD1, SMAD5, SMAD8); test: TR-FRET assay of SMAD4R361H with different R-SMAD isoforms; type: binding, Homo sapiens; conditions: for R-SMAD selectivity in inducing the interaction of SMAD4R361H with SMAD3 and SMAD2: among all the tested R-SMADs; for compound-induced TR-FRET signal for SMAD4R361H interaction with SMAD3 versus other R-SMADs: compound titration
Protocol: To determine the R-SMADs selectivity of Ro-31-8220 and Go-6983, experiments were performed to determine their effects on inducing PPI between SMAD4R361H and different isoforms of R-SMADs using the TR-FRET assay.

[3] = tested on: HCT116 cells (WT), SMAD4 knockout (null) and R361H isogenic cells; test: Cell viability (CellTiter-Blue) in isogenic colon cancer cells; type: cell-based; conditions: Ro-31-8220 1 μM
Protocol: HCT116 cells (WT) and corresponding SMAD4 knockout (null) or R361H, isogenic cells were treated with TGF-β (10 ng/mL), Ro-31-8220 (1 μM), Go-6983 (10 μM), or in combination as indicated. The cell viability after treatment was measured using the CellTiter-Blue™ reagent and normalized to the untreated vehicle or DMSO controls (% C).
(§1) Experiments indicate that Ro-31-8220 is capable of restoring the SMAD4mut/SMAD3 PPI and the tumor-suppressive TGF-β signaling in the SMAD4 mutation cells. Experiments were also performed to determine whether Ro-31-8220 can promote TGF-β-evoked anti-proliferation function in cancer cells with SMAD4 missense mutations. Three functional assays were performed to measure the effect of Ro-31-8220 on cell-cycle progression, cell proliferation, and colony formation with WT and isogenic SMAD4 mutant colon cancer cells.
Thus, the effect of Ro-31-8220 on TGF-β-regulated cell proliferation was examined in the context of the SMAD4 mutation. TGF-β induced a significant decrease of cell viability of SMAD4 WT cells, while the isogenic SMAD4 null or R361H cells were resistant to such TGF-β-induced growth suppression (FIG. 3B).

[4] = tested on: HCT116 isogenic SMAD4 R361H cells; test: Colony formation assay; type: cell-based; conditions: TGF-β 10 ng/mL; Ro-31-8220 1 μM, Go-6983 10 μM
Protocol: Parental HCT116 (WT) and isogenic R361H cells were treated with TGF-β (10 ng/mL), Ro-31-8220 (1 μM), Go-6983 (10 μM), or in combination as indicated.
as §1
The lost tumor suppressor function of mutated SMAD4, R361H, can be recapitulated in an in vitro tumorigenic assay. Colon cancer HCT116 cells with WT and their isogenic mutant SMAD4 cells can grow into large colonies.

[5] = tested on: HCT116 isogenic SMAD4 R361H cells; test: Flow cytometry-based cell-cycle analysis (G1/S phase); conditions: TGF-β 10 ng/mL; Ro-31-8220 1 μM, Go-6983 10 μM
Protocol: Parental HCT116 (WT) and isogenic R361H cells were treated with TGF-β (10 ng/mL), Ro-31-8220 (1 μM), Go-6983 (10 μM), or in combination as indicated. The percentage of cells staying in G1/S phase was determined by flow cytometry.
as §1

R361H cells = test: Transcriptional response to TGF-β (pro-apoptotic and pro-autophagy genes); type: cell-based
Flag-SMAD3, P84022 = test: TR-FRET, HEK293T cell lysate, anti-Flag-Tb / anti-His-D2; conditions: remark: other sources report otherwise
Chain of Flag-SMAD3, P84022 (P84022 whole entry): as the sequence (P84022 whole entry partner) above

Molecule | EC50 [1] | EC50 (SMAD4R361H-SMAD3 complex) | SMAD3 level in the D351H GST pull-down complex (SMAD4D351H-SMAD3 PPI) | R-SMAD selectivity in inducing the interaction of SMAD4R361H with SMAD3 and SMAD2 [2] | compound-induced TR-FRET signal for SMAD4R361H interaction with SMAD3 versus other R-SMADs [2] | combination with TGF-β in inhibiting cell viability ([3]; TGF-β 10 ng/mL, Go-6983 10 μM) | combination with TGF-β in inhibiting colon cancer cell colony formation [4] | sensitivity of R361H cells to TGF-β-induced G1/S cell-cycle arrest [5] | sensitivity of SMAD4 R361H cells to TGF-β-induced growth suppression ([3]; R361H cells, TGF-β 10 ng/mL, Go-6983 10 μM) | growth inhibition by compound treatment alone ([3]; SMAD4 WT, null and R361H cells) | colony area of R361H cells, sensitivity to TGF-β-induced inhibition of colony formation [4] | transcriptional response of R361H cells to TGF-β (R361H cells) | signal-to-background ratio (Flag-SMAD3, P84022)
COc1ccc2c(c1)c(C1=C(c3c[nH]c4ccccc34)C(=O)NC1=O)cn2CCCN(C)C [Go-6983, 3-(1-(3-(dimethylamino)propyl)-5-methoxy-1H-indol-3-yl)-4-(1H-indol-3-yl)-1H-pyrrole-2,5-dione] | 15.2 ± 2.9 µM | 8.9 ± 0.7 µM | significantly restored | selective | significantly higher | synergistic effect | synergistic effect |  |  |  |  |  | 
Cn1cc(C2=C(c3cn(CCCSC(=N)N)c4ccccc34)C(=O)NC2=O)c2ccccc21 [Ro-31-8220, 3-(3-(4-(1-methyl-1H-indol-3-yl)-2,5-dioxo-2,5-dihydro-1H-pyrrol-3-yl)-1H-indol-1-yl)propyl carbamimidothioate] | 3.9 ± 1 µM | 2.1 ± 0.7 µM | significantly restored | selective | significantly higher | synergistic effect | synergistic effect | regained sensitivity | restored the sensitivity | did not result in any significant growth inhibition | significantly decreased colony area | restored the transcriptional response | 
B1 |  |  |  |  |  |  |  |  |  |  |  |  | 30 fold
B2 |  |  |  |  |  |  |  |  |  |  |  |  | 10 fold
